Here are results for six compounds from ChEMBL document CHEMBL5465560, “Selectivity Literature for EUbOPEN Chemogenomic Library” (2024).

Bounds are passed on as bounds.

Usually IC50 stands for the concentration needed to halve the response being measured. A low value points to higher potency.

Experiment [1] addresses Mitogen-activated protein kinase 9 (Homo sapiens, UniProt P45984). The note with it: at 10 µM.
In experiment [2] the test system is Epidermal growth factor receptor (Homo sapiens), P00533 [UNDEFINED MUTATION]. The experiment in a line: (§1) Selectivity interaction (KinomeScan (DiscoverX)) EUB0000229b EGFR. The note with it: at 1 µM.
In experiment [3] the test system is Epidermal growth factor receptor (Homo sapiens), P00533 [T790M]. Described as §1. The note with it: at 1 µM.
For experiment [4], the system named is Epidermal growth factor receptor (Homo sapiens), P00533 [L861Q]. The experiment is described as §1. Particulars: at 1 µM.
For experiment [5], the target named is Epidermal growth factor receptor (Homo sapiens, UniProt P00533). Described as §1. Particulars: at 10 µM.
The test system of experiment [6] is Epidermal growth factor receptor (Homo sapiens), P00533 [L858R]. The description is as §1. Particulars: at 1 µM.
Chain of Epidermal growth factor receptor (Homo sapiens), P00533 [L858R] (P00533 whole entry L858R): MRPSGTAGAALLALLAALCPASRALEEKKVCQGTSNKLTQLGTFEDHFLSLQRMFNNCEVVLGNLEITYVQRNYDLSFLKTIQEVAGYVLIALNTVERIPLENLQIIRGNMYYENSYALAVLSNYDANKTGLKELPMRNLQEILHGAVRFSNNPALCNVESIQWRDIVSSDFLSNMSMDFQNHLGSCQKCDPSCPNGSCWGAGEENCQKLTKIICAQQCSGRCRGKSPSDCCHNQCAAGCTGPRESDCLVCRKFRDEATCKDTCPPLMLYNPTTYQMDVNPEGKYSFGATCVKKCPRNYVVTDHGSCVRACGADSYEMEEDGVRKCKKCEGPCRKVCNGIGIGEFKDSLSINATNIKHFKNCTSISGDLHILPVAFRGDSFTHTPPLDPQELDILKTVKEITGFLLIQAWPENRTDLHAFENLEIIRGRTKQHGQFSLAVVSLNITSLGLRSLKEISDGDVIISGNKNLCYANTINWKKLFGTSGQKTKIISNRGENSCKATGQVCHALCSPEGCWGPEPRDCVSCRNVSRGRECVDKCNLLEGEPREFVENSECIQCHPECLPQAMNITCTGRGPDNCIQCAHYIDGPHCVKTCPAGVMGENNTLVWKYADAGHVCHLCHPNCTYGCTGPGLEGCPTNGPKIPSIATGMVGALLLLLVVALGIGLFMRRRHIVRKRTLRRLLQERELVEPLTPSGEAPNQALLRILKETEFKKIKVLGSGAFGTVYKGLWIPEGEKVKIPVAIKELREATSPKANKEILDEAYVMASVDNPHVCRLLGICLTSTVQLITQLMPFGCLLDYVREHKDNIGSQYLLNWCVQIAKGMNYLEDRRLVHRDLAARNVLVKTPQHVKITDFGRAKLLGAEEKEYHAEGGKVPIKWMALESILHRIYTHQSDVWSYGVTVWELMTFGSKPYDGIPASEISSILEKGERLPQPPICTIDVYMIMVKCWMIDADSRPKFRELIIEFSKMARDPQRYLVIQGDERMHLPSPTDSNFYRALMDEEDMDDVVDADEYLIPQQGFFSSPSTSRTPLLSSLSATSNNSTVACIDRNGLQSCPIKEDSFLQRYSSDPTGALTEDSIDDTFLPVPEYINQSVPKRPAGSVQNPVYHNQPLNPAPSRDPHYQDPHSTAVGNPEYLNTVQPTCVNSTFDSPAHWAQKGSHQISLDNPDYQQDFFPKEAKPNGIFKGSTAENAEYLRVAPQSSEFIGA
Experiment [7] has as its system Epidermal growth factor receptor (Homo sapiens), P00533 [G719S]. Described as §1. Particulars: at 1 µM.
For experiment [8], the system named is Epidermal growth factor receptor (Homo sapiens), P00533 [L858R,T790M]. The experiment is described as §1. The note with it: at 1 µM.
Chain of Epidermal growth factor receptor (Homo sapiens), P00533 [L858R,T790M] (P00533 whole entry T790M/L858R, looked up): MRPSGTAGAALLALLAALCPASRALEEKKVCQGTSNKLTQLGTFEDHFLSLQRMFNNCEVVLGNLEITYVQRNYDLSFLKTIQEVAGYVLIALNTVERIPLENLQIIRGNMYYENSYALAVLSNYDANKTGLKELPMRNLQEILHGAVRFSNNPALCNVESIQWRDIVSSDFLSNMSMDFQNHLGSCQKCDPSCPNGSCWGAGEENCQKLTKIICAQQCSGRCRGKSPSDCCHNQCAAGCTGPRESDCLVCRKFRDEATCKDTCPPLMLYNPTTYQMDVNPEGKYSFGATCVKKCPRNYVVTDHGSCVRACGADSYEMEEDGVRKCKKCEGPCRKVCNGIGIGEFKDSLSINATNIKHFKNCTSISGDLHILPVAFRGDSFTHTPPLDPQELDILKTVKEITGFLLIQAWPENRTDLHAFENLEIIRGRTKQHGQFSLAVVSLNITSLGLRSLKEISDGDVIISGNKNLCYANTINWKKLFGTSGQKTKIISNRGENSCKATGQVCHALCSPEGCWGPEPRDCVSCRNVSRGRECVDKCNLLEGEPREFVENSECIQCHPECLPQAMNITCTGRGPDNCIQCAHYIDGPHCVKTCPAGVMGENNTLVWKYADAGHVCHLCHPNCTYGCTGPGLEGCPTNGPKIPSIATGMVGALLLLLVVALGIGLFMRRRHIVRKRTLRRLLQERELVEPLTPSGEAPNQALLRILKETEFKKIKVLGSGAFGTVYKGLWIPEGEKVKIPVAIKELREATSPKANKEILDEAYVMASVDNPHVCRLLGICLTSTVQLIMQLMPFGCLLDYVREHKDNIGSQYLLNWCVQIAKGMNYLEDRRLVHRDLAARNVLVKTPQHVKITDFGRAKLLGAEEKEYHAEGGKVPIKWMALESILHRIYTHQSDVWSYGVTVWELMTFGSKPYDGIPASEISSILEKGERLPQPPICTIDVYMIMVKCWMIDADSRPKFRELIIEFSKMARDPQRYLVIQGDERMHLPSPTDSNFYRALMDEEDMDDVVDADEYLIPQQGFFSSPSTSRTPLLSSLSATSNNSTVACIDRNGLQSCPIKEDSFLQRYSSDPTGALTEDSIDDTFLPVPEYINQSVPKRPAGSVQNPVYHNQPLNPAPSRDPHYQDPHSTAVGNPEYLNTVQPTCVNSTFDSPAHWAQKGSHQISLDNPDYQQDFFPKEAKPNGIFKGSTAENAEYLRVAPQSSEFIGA
Experiment [9] deals with T1, Uncharacterized serine/threonine-protein kinase SBK3 (Homo sapiens) (UniProt P0C264).
T1 sequence (whole entry): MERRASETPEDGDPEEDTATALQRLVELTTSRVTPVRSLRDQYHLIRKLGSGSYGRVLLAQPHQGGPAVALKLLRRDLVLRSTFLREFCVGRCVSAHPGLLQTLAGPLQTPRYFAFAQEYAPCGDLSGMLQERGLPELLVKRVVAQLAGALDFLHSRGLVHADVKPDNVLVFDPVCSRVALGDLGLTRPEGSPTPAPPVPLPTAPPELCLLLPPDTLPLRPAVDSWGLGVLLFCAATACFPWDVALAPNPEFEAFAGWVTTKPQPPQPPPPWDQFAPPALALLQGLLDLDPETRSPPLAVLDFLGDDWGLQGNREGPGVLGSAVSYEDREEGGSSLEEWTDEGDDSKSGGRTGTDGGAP
The experiment in a line: Selectivity interaction (KinomeScan (DiscoverX)) EUB0000655a SBK3. The note with it: at 10 µM.

In experiment [10] the target is Macrophage-stimulating protein receptor (Homo sapiens, UniProt Q04912). The experiment in a line: Selectivity interaction (KinomeScan (DiscoverX)) EUB0001619a MST1R. Particulars: at 1 µM.
Chain of Macrophage-stimulating protein receptor (Q04912 25-304 limits assumed): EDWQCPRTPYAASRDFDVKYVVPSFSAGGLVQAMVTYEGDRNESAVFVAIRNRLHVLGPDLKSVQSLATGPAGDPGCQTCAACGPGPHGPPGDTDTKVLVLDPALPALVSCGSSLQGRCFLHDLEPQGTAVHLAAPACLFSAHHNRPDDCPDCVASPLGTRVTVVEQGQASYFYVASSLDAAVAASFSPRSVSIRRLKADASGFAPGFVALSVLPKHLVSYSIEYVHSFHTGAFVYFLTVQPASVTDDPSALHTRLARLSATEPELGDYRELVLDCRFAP
Chain of Macrophage-stimulating protein receptor (Q04912 310-1400 limits assumed): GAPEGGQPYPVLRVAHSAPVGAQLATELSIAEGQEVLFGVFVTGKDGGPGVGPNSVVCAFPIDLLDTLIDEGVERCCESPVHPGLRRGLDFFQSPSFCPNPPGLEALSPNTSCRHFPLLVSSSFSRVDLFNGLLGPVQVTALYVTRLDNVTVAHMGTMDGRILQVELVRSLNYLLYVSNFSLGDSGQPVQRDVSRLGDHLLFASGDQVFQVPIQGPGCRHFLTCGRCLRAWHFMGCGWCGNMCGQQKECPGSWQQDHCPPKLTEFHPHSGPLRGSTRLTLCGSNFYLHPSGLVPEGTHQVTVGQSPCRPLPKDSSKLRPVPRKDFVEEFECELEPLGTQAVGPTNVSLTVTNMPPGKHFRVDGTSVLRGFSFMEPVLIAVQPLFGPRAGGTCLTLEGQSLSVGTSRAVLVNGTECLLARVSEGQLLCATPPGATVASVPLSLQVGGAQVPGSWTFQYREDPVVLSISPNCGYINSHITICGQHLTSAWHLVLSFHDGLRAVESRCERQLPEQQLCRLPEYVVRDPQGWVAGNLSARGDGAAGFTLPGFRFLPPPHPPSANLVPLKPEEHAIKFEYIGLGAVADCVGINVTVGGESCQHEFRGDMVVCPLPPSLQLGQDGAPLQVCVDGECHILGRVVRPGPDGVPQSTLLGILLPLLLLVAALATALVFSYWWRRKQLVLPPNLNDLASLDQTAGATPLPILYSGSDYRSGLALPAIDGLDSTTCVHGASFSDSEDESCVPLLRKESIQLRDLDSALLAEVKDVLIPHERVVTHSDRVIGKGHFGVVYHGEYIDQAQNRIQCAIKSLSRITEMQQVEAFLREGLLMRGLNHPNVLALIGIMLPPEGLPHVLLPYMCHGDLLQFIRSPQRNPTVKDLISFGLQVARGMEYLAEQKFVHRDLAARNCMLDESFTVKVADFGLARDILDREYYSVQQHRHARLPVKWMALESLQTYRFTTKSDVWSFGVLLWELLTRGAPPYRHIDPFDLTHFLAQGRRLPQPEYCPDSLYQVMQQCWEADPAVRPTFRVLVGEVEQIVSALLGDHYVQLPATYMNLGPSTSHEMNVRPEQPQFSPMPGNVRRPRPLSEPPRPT
Experiment [11] has as its target T2, MAP/microtubule affinity-regulating kinase 4 (Homo sapiens) (UniProt Q96L34).
T2 sequence (whole entry): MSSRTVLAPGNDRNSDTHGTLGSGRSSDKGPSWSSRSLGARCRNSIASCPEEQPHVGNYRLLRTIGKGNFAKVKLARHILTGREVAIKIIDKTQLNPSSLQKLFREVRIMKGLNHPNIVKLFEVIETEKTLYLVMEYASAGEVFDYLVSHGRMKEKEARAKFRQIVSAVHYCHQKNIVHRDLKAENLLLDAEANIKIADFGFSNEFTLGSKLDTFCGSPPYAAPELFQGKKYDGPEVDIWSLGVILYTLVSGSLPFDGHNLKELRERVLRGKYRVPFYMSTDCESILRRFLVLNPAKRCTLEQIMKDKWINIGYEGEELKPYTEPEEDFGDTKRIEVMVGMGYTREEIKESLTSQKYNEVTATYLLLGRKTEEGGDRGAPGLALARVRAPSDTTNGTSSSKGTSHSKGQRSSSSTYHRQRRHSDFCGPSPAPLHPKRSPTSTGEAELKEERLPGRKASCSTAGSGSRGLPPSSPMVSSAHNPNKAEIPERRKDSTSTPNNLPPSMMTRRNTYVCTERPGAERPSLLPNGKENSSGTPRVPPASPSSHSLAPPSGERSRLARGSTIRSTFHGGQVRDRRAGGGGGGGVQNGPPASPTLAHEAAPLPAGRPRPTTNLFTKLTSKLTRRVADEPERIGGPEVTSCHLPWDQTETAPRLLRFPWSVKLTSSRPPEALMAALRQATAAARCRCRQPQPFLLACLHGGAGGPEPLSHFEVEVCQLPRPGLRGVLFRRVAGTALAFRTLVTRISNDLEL
Kind of experiment: Selectivity interaction (Kinase panel (Invitrogen)) EUB0000639a MARK4. The note with it: at 200 nM.

Experiment [12] deals with Ephrin type-A receptor 5 (Homo sapiens) (UniProt P54756). The experiment in a line: Selectivity interaction (Kinase panel (Invitrogen)) EUB0000639a EPHA5. The note with it: at 200 nM.
For experiment [13], the target named is T3, Serine/threonine-protein kinase TAO2 (Homo sapiens) (UniProt Q9UL54).
T3 sequence (whole entry): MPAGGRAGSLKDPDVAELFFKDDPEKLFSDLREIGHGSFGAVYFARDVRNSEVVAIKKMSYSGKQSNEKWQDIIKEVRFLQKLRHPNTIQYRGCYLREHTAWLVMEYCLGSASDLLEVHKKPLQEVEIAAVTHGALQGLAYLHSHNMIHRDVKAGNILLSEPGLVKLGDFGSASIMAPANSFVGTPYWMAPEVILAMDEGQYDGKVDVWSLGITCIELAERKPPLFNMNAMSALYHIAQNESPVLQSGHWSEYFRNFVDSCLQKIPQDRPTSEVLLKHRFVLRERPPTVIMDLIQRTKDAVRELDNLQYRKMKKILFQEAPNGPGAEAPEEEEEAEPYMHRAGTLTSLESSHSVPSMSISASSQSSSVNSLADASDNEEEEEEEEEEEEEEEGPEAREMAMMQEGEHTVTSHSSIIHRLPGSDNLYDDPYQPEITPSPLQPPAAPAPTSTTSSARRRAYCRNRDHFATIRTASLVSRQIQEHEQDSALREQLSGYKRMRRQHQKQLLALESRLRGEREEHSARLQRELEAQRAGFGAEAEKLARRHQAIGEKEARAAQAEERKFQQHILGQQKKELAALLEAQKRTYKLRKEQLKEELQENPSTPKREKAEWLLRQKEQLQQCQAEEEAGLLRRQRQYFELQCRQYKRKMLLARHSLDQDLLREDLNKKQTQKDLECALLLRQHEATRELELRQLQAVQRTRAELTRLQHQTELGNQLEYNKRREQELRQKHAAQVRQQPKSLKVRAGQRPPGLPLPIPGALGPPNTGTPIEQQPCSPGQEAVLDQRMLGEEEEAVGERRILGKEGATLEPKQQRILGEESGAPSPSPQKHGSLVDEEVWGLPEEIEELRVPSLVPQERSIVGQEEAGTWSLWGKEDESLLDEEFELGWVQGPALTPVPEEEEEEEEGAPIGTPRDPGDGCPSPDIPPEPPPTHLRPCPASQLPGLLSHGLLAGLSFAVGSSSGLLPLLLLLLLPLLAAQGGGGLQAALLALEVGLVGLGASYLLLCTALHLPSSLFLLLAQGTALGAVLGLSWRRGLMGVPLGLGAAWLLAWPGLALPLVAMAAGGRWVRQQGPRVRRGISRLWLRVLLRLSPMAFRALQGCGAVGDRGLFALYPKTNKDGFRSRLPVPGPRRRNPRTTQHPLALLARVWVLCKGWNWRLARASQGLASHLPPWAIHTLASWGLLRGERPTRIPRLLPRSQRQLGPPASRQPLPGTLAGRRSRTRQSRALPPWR
Kind of experiment: Selectivity interaction (KinomeScan (DiscoverX)) EUB0000595a TAOK2. The note with it: at 10 µM.

In experiment [14] the target is Mitogen-activated protein kinase 10 (Homo sapiens, UniProt P53779). Kind of experiment: Selectivity interaction (Kinase panel (enzymatic assay)) EUB0000595a MAPK10.

Chain of Epidermal growth factor receptor (Homo sapiens), P00533 [G719S] (P00533 whole entry G719S): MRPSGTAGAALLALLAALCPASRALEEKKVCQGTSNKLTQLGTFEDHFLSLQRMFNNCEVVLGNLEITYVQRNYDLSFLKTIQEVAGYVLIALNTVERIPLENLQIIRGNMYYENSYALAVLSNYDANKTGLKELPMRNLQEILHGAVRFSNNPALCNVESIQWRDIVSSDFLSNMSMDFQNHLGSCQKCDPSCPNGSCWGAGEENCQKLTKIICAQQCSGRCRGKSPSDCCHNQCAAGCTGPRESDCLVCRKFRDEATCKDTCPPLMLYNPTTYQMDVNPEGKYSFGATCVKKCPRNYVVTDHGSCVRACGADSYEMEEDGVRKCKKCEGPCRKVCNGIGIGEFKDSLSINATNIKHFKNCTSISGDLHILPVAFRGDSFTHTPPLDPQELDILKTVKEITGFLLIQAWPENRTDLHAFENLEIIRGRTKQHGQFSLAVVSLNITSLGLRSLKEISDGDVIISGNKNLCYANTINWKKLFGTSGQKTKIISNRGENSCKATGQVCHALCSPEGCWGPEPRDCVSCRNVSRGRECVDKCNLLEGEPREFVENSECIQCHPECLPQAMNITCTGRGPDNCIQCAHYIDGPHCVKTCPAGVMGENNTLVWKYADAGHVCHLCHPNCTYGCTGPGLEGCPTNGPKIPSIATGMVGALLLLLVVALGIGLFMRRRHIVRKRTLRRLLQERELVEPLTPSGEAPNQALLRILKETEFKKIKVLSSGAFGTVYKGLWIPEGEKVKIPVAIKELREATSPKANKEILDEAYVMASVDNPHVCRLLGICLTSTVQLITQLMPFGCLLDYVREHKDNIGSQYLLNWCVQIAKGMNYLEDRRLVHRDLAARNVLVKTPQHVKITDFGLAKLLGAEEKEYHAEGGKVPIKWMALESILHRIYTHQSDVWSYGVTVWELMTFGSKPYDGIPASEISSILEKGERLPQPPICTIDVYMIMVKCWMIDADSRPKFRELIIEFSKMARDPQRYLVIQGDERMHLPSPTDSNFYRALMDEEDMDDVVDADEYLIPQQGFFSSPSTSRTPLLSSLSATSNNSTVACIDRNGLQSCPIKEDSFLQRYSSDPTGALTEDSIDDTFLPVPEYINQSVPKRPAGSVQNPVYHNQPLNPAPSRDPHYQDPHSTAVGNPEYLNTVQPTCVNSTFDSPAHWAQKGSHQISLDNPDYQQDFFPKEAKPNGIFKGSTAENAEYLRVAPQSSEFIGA

Consider `Cc1cc([C@@H](C)Nc2ccccc2C(=O)O)c2nc(N3CCOCC3)cc(=O)n2c1` [AZD-6482], for which the % of control in [1] came out at 66%.

Take `COc1cc(N(C)c2ccnc3ccc(C(F)(F)F)cc23)cc(OC)c1OC`: the % binding in experiment [2] was 84%; in experiment [3], 100%; in [4] it was 97%; in experiment [5], 96%; in experiment [6] it was 99%; in experiment [7], 92%. Also, in experiment [8], the % binding is 86%.

In [9], `CN(C)CCOc1ccc(-c2nc(-c3ccncc3)c(-c3ccc4c(c3)CC/C4=N\O)[nH]2)cc1` showed a % of control of 100%.

In experiment [10], `N#Cc1cccc(-c2c[nH]c3ncnc(N4CCOCC4)c23)c1` registered a % of control of 95%.

In the case of `CC[C@@H]1[C@H](F)C(=O)N[C@@H]1COc1nccc2cc(C(N)=O)c(OC)cc12` [ZIMLOVISERTIB], the % of inhibition in experiment [11] was 14%; in [12] it was -0.246%.

On to `COCC(=O)NC/C=C/c1ccc2ncnc(Nc3ccc(Oc4ccc(C)nc4)c(C)c3)c2c1` [CP-724714], for which the % of control in [13] was determined as 100%. Also, in experiment [14], the IC50 is above 10 µM.
